Each structure is given as a SMILES string.

Assay [1] addresses T1, Hsp90 (human Hsp90α) (Homo sapiens, UniProt P07900, H210A).
T1 construct: gene HSP90AA1; purified full-length Hsp90α, C-terminally dimerized homodimer
The assay is described as follows: isothermal titration calorimetry. The format is binding. On the technique in general: In ITC the heat of successive injections is recorded.

Assay [2] addresses T2, Hsp90 (human Hsp90α) (Homo sapiens, UniProt P07900).
T2 construct: gene HSP90AA1; purified full-length Hsp90α, C-terminally dimerized homodimer
The assay is described as follows: isothermal titration calorimetry. The format is binding.

For `Nc1ncnc2c1ncn2[C@@H]1O[C@H](COP(=O)(O)OP(=O)(O)NP(=O)(O)O)[C@@H](O)[C@H]1O` [AMPPNP], the values for the Kd on Hsp90 (human Hsp90α) [1] and at Hsp90 (human Hsp90α) [2] were 170 ± 9.8 µM and 220 ± 37 µM, respectively.
